Results filed as inconclusive are left out.
System: D54 LucT luciferase reporter counterscreen, luminescence, 24 h
Test: luciferase activators in glycosylation-insensitive reporter cells, dose response, counter-screen for N-linked glycosylation inhibitor project, D54 LucT cells, luminescence, cherry pick (AID 624404)

| Compound | AC35 |
| --- | --- |
| N#CC1=C(N)Oc2c(c(=O)sc3ccccc23)C1c1cccnc1 (centres undefined) | 1260 nM |
| CSCCOC(=O)c1[nH]c2c(c1C)C(=O)CC(c1ccco1)C2 (centres undefined) | 627 nM |
| COc1cc(C(=O)N/N=C(\C)c2ccc3c(c2)OCO3)cc(OC)c1OC | 92.4 nM |
| COc1ccc(-n2c(=S)[nH]c3cc(C(=O)Nc4ccc(C)c(F)c4)ccc3c2=O)c(OC)c1 | 245 nM |
| CCOC(=O)c1c(C)[nH]c(C(=O)N/N=C/c2ccc(OC)c(OC)c2)c1C | 526 nM |
| O=C(NCCN1C(=O)S/C(=C\c2ccc(Cl)cc2Cl)C1=O)C1=COCCO1 | 3410 nM |
| O=C(c1ccc2ncsc2c1)N1CCN(c2cccc(C(F)(F)F)c2)CC1 | 629 nM |
| COc1cc2c(cc1OC)C(=O)N1[C@H]3c4ccccc4OC[C@@H]3[C@H](c3ccccc3)[C@]1(C)C(=O)N2 | 196 nM |
| CN(C)c1ccc(/C=N/NC(=O)c2ccccc2Cl)cc1 | 119 nM |
| COc1cccc(-c2nn(C)c3sc(C(=O)NCc4ccco4)cc23)c1 | 3350 nM |
| CC#CCN1c2ccccc2[C@]23C[C@@H](C(=O)OC)N(C(=O)c4cc(C)oc4C)C2=NC(C(=O)OC)=C(C(=O)OC)[C@H]13 | 2270 nM |
| Cc1cccc(Nc2nc(N)nc(-c3oc4ccccc4c3C)n2)c1 | 1570 nM |
| CC(C)(C)c1ccc(OCC(=O)Nc2ccncc2)c(Br)c1 | 35.6 nM |
| CC1(C(=O)NCC2CCOCC2)Cc2c(-c3cccc(C(F)(F)F)c3)ccnc2O1 (centres undefined) | 32.5 nM |
| COc1ccc2c(c1)[C@H]1[C@H](CO2)[C@H](c2ccccc2)[C@]2(C)C(=O)Nc3cc(C)ccc3C(=O)N12 | 66.8 nM |
| COc1cccc(C(=O)Nc2ncc3c(n2)CC(c2ccc(OC)cc2OC)CC3=O)c1 (centres undefined) | 7610 nM |
| Cc1ccc(N2C(=O)Nc3ccccc3C2(O)C(=O)N2CCN(c3ccccn3)CC2)cc1C (centres undefined) | 375 nM |
| CN(C)CCNc1cccc2sc3ccc(O)cc3c(=O)c12 | 1980 nM |
| COc1ccc2c(c1)[C@H]1[C@H](CO2)[C@H](c2ccccc2)[C@]2(C)C(=O)Nc3cc(F)ccc3C(=O)N12 | 326 nM |
| Cc1ccc(-c2cc(C(=O)N/N=C/c3c[nH]c4ccccc34)[nH]n2)cc1 | 101 nM |
| Cc1cc(=O)[nH]c2c(C)cc(S(=O)(=O)N3CCCCC3)cc12 | 411 nM |
| Cc1ccc2c(c1)cc(CN(C(=O)N1CCOCC1)C1CCCC1)c1nnnn12 | 2460 nM |
| Cc1ccc(NC(=O)C(Cc2ccccc2)N2C(=O)C3C4CCC(C4)C3C2=O)cc1Cl (centres undefined) | 1680 nM |
| O=C1NC[C@H](Cc2ccccc2)N(C[C@H]2CCCN2C[C@H](Cc2ccccc2)N2C[C@H](Cc3ccc(O)cc3)N(CCc3ccccc3)C(=O)C2=O)C1=O | 3770 nM |
| CC(=O)C1=C(O)C(=O)N(c2ccc(Br)cn2)C1c1ccc(Br)cc1 (centres undefined) | 55.2 nM |
| COc1cc(C(=O)OCCCN2CCCN(CCCOC(=O)c3cc(OC)c(OC)c(OC)c3)CC2)cc(OC)c1OC | 2190 nM |
| COc1cc(Nc2nc3c(N)cc(C(F)(F)F)cc3nc2-c2ccccc2)cc(OC)c1OC | 3870 nM |

| Compound | AC35 |
| --- | --- |
| O=C1NC(=O)N(Cc2ccccc2)C(=O)/C1=C/C=C/c1ccco1 | 5280 nM |
| Nc1nc(Nc2ccccc2)sc1C(=O)c1ccccc1 | 272 nM |
| O=C1Cc2c([nH]c3ccc([N+](=O)[O-])cc23)-c2ccccc2N1 | 894 nM |
| Cc1ccc2nc(-c3ccncc3)cc(C(=O)Nc3ccncc3)c2c1 | 64.6 nM |
| Cn1c(=O)n(C)c2cc(NC(=O)CCl)ccc21 | 707 nM |
| C[C@@]12C(=O)Nc3ccc(F)cc3C(=O)N1[C@H]1c3cc(Cl)ccc3OC[C@@H]1[C@@H]2c1ccccc1 | 1820 nM |
| Cc1ccc(C2=NN(C(=O)CSc3nccn3C)C(c3ccco3)C2)cc1 (centres undefined) | 323 nM |
| COc1cc2[nH]c(C(=O)Nc3ccc(F)cc3)cc2c(OC)c1OC | 98.2 nM |
| Cc1ccc(C(=O)N/C(=C\c2cccs2)C(=O)NCCc2c[nH]c3ccccc23)cc1C | 116 nM |
| COc1ccc(CC(=O)N(Cc2ccccc2)c2ccc(C)cc2)cc1OC | 1040 nM |
| O=C(/C=C/c1cccc([N+](=O)[O-])c1)c1ccc2c(c1)OCCO2 | 247 nM |
| Cc1ccc(NCCN(C)C)c2c(=O)c3cc(O)ccc3sc12 | 5710 nM |
| COc1ccccc1CCC(=O)Nc1ccc2c(c1)c(=O)n(C)n2-c1cccs1 | 2330 nM |
| CC1CN(C(=O)c2cc(-c3ccncc3)nc3ccccc23)CC(C)O1 (centres undefined) | 1720 nM |
| CCN(CC)c1ccc(/C=N/n2nnnc2N)c(O)c1 | 336 nM |
| CC(=O)NC(c1cccc(F)c1)c1nc(-c2ccccc2C)cs1 (centres undefined) | 263 nM |
| Cc1ccc(Nc2nc(N)nc(CN3CCN(Cc4ccccc4)CC3)n2)cc1Cl | 107 nM |
| CC(=O)Nc1sc(NC(=O)c2ccccc2)nc1-c1cccs1 | 8340 nM |
| O=C(Nc1cccc2ncccc12)c1ccc([N+](=O)[O-])o1 | 4570 nM |
| COc1cc2c(cc1OC)C(c1cccs1)N(C(=S)NC(C)C)CC2 (centres undefined) | 85.1 nM |
| CCCC(=O)Nc1nc2ccc(NC(=O)c3c(F)c(F)c(OC)c(F)c3F)cc2s1 | 2270 nM |
| Cc1cc(=O)oc2cc(OCC(=O)N3c4ccccc4CC3C)ccc12 (centres undefined) | 1370 nM |
| O=c1[nH]c(=O)n([C@H]2C[C@H](O)[C@@H](CO)O2)cc1I | 4150 nM |
| O=C(NCCc1ccccc1)C1c2ccccc2C(=O)N1Cc1cccs1 (centres undefined) | 1400 nM |
| CC(C)C1N=C(c2ccc3c(c2)OCO3)CC(c2ccccc2O)N1 (centres undefined) | 3510 nM |
| Cc1cc(=O)oc2cc(NC(=O)c3cccc(S(C)(=O)=O)c3)ccc12 | 526 nM |
| COc1cccc(C2=CC(c3cccc(OC)c3OC)n3nnnc3N2)c1 (centres undefined) | 765 nM |

Source: PubChem BioAssay AID624404 (Broad Institute, 2012)
